According to ChEMBL document CHEMBL3526157, “Unique metabolic pathway of [(14)C]lenvatinib after oral administration to male cynomolgus monkey” (Drug Metab Dispos, 2012):
Values belong to the compound of their own block, whether it stands above or below them.

How the values were obtained:
[1] = Drug metabolism in Sprague-Dawley rat liver S9 fraction treated with 50 uM of lenvatinib up to 60 mins by HPLC analysis in presence of GSH and NADPH; conditions: s9, 1 h
[2] = Drug metabolism in Sprague-Dawley rat liver S9 fraction treated with 50 uM of lenvatinib up to 60 mins by HPLC analysis in presence of GSH and absence of NADPH; conditions: s9, 1 h
[3] = Drug metabolism in cynomolgus monkey liver S9 fraction treated with 50 uM of lenvatinib up to 120 mins by HPLC analysis in presence of GSH and NADPH; assay type: ADME, subcellular, Macaca fascicularis; conditions: s9, 2 h
[4] = Drug metabolism in human liver S9 fraction treated with 50 uM of lenvatinib up to 120 mins by HPLC analysis in presence of GSH and absence of NADPH; assay type: ADME; conditions: s9, 2 h
[5] = tested on: Cynomolgus monkey; assay: Drug metabolism in cynomolgus monkey treated with 30 mg/kg, po of [14C]lenvatinib administered on day 1, 2 and 4 by radio-LC/MS analysis; assay type: ADME, organism-based, Macaca fascicularis; set-up: dose 30 mg/kg, route oral; conditions: in vivo
[6] = tested on: Cynomolgus monkey; assay: Drug retention time in cynomolgus monkey treated with 30 mg/kg, po of [14C]lenvatinib administered on day 1, 2 and 4 by radio-LC/MS analysis; assay type: ADME, organism-based, Macaca fascicularis; set-up: dose 30 mg/kg, route oral; conditions: in vivo
[7] = Drug metabolism in cynomolgus monkey liver S9 fraction treated with 50 uM of lenvatinib up to 120 mins by HPLC analysis in presence of GSH and absence of NADPH; assay type: ADME, Macaca fascicularis; conditions: s9, 2 h
[8] = Drug metabolism in human liver S9 fraction treated with 50 uM of lenvatinib up to 120 mins by HPLC analysis in presence of GSH and NADPH; assay type: ADME, subcellular; conditions: s9, 2 h
[9] = Drug metabolism in Sprague-Dawley rat liver S9 fraction assessed as decrease of parent compound level at 50 uM up to 60 mins by HPLC analysis in presence of GSH and absence of NADPH; conditions: s9, 1 h, TDE = time-dependent effect
[10] = Drug metabolism in human liver S9 fraction assessed as 5-(3-(6-carbamoyl-7-methoxyquinolin-4-ylthio)-1-(carboxymethylamino)-1-oxopropan-2-ylamino)-[…]-5-oxopentanoic acid level at 50 uM up to 120 mins by HPLC analysis in presence of GSH and absence of NADPH; assay type: ADME, tissue-based; conditions: s9, 2 h
[11] = Drug metabolism in cynomolgus monkey liver S9 fraction assessed as decrease of parent compound level at 50 uM up to 120 mins by HPLC analysis in presence of GSH and absence of NADPH; assay type: ADME, tissue-based, Macaca fascicularis; conditions: s9, 2 h, TDE = time-dependent effect
[12] = Drug metabolism in cynomolgus monkey liver S9 fraction assessed as 5-(3-(6-carbamoyl-7-methoxyquinolin-4-ylthio)-1-(carboxymethylamino)-1-oxopropan-2-ylamino)-[…]-5-oxopentanoic acid level at 50 uM up to 120 mins by HPLC analysis in presence of GSH and absence of NADPH; assay type: ADME, Macaca fascicularis; conditions: s9, 2 h
[13] = Drug metabolism in Sprague-Dawley rat liver S9 fraction assessed as decrease of parent compound level at 50 uM up to 120 mins by HPLC analysis in presence of GSH and NADPH; assay type: ADME, subcellular; conditions: s9, 2 h, TDE = time-dependent effect
[14] = Drug metabolism in human liver S9 fraction assessed as decrease of parent compound level at 50 uM up to 120 mins by HPLC analysis in presence of GSH and absence of NADPH; assay type: ADME, tissue-based; conditions: s9, 2 h, TDE = time-dependent effect
[15] = Drug metabolism in human liver S9 fraction assessed as decrease of parent compound level at 50 uM up to 120 mins by HPLC analysis in presence of GSH and NADPH; assay type: ADME, subcellular; conditions: s9, 2 h, TDE = time-dependent effect
[16] = Drug metabolism in potassium phosphate buffer at pH 7.4 assessed as decrease of parent compound at 50 uM in presence of NAC; assay type: physicochemical; conditions: pH 7.4, 50 µM
[17] = Drug metabolism in cynomolgus monkey liver S9 fraction assessed as 5-(3-(6-carbamoyl-7-methoxyquinolin-4-ylthio)-1-(carboxymethylamino)-1-oxopropan-2-ylamino)-[…]-5-oxopentanoic acid level at 50 uM up to 120 mins by HPLC analysis in presence of GSH and NADPH; assay type: ADME, subcellular, Macaca fascicularis; conditions: s9, 2 h
[18] = Drug metabolism in Sprague-Dawley rat liver S9 fraction assessed as 5-(3-(6-carbamoyl-7-methoxyquinolin-4-ylthio)-1-(carboxymethylamino)-1-oxopropan-2-ylamino)-[…]-5-oxopentanoic acid level at 50 uM up to 60 mins by HPLC analysis in presence of GSH and NADPH; conditions: s9, 1 h
[19] = Drug metabolism in potassium phosphate buffer at pH 7.4 assessed as decrease of parent compound at 50 uM in presence of cysteine; assay type: physicochemical; conditions: pH 7.4, 50 µM
[20] = Drug metabolism in cynomolgus monkey liver S9 fraction assessed as decrease of parent compound level at 50 uM up to 120 mins by HPLC analysis in presence of GSH and NADPH; assay type: ADME, subcellular, Macaca fascicularis; conditions: s9, 2 h, TDE = time-dependent effect
[21] = Drug metabolism in human liver S9 fraction assessed as 5-(3-(6-carbamoyl-7-methoxyquinolin-4-ylthio)-1-(carboxymethylamino)-1-oxopropan-2-ylamino)-[…]-5-oxopentanoic acid level at 50 uM up to 120 mins by HPLC analysis in presence of GSH and NADPH; assay type: ADME, subcellular; conditions: s9, 2 h
[22] = Drug metabolism in potassium phosphate buffer at pH 7.4 assessed as decrease of parent compound at 50 uM in presence of GSH; assay type: physicochemical; conditions: pH 7.4, 50 µM
[23] = Drug metabolism in Sprague-Dawley rat liver S9 fraction assessed as 5-(3-(6-carbamoyl-7-methoxyquinolin-4-ylthio)-1-(carboxymethylamino)-1-oxopropan-2-ylamino)-[…]-5-oxopentanoic acid level at 50 uM up to 60 mins by HPLC analysis in presence of GSH and absence of NADPH; conditions: s9, 1 h

- Drug metabolism [1]: metabolite_detected
- Drug metabolism [2]: metabolite_detected
- Drug metabolism [3]: metabolite_detected
- Drug metabolism [4]: metabolite_detected
- Drug metabolism [5]: metabolite_detected
- Retention_time [6]: 13.1 min
- Drug metabolism [7]: metabolite_detected
- Drug metabolism [8]: metabolite_detected
Structure (SMILES): COc1cc2nccc(SC[C@H](NC(=O)CC[C@H](N)C(=O)O)C(=O)NCC(=O)O)c2cc1C(N)=O

- Drug metabolism [5]: metabolite_detected
- Retention_time [6]: 12.2 min
Structure (SMILES): COc1cc2nccc(SCC(=O)O)c2cc1C(N)=O

- Drug metabolism [5]: metabolite_detected
- Retention_time [6]: 13.5 min
Structure (SMILES): COc1cc2nccc(N[C@@H](CSSC[C@H](Nc3ccnc4cc(OC)c(C(N)=O)cc34)C(=O)O)C(=O)O)c2cc1C(N)=O

- Drug metabolism [9]: tde
- Drug metabolism [10]: metabolite_detected
- Drug metabolism [11]: tde
- Drug metabolism [12]: metabolite_detected
- Drug metabolism [13]: tde
- Drug metabolism [14]: tde
- Drug metabolism [15]: tde
- Drug metabolism [16]: metabolite_detected
- Retention_time [6]: 46.4 min
- Drug metabolism [17]: metabolite_detected
- Drug metabolism [18]: metabolite_detected
- Drug metabolism [19]: metabolite_detected
- Drug metabolism [20]: tde
- Drug metabolism [21]: metabolite_detected
- Drug metabolism [22]: metabolite_detected
- Drug metabolism [23]: metabolite_detected
Structure (SMILES): COc1cc2nccc(Oc3ccc(NC(=O)NC4CC4)c(Cl)c3)c2cc1C(N)=O.CS(=O)(=O)O [LENVATINIB MESYLATE]
